The target of test [1] is T1, SARS-CoV-2 nsp13 (Severe acute respiratory syndrome coronavirus 2, UniProt P0DTD1). Description: SARS-CoV-2 nsp13 ATPase-associated activity (Biomol Green, BSA-TCEP). Format: biochemical. The following applies: for IC50: SARS-CoV-2 nsp13-associated ATPase activity, from dose-response curves; for remaining activity at 30 µM: read-out: Percentage of enzymatic residual activity (ATPase).

Test [2] addresses T1, SARS-CoV-2 nsp13. Put plainly: SARS-CoV-2 nsp13 unwinding-associated activity (fluorescence, BSA-TCEP). Format: biochemical. The following applies: for IC50: SARS-CoV-2 nsp13-associated unwinding activity, from dose-response curves; for remaining activity at 30 µM: read-out: Percentage of enzymatic residual activity (unwinding).
[3] abbreviates: read-out: Activity in enzyme assay IC50 ATPase BSA-TCEP.
[4] abbreviates: read-out: Activity in enzyme assay IC50 Unwinding BSA-TCEP.
Where [5] appears, read: Activity in enzyme assay IC50 ATPase BSA-TCEP.
The mark [6] stands for this setting: Activity in enzyme assay IC50 Unwinding BSA-TCEP.

Consider 17 compounds from publication PMC12344683, “N-alkyl and N-benzyl indoles are anti-SARS-CoV-2 agents and nsp13 inhibitors” (Journal of Enzyme Inhibition and Medicinal Chemistry, 2025).

SMILES strings stand for the structures.

As a reminder, the IC50 is the concentration at which inhibition is half-maximal. Consider `COc1ccc(Cn2cc(/C=C/C(=O)/C=C(\O)C(=O)O)c3ccccc32)cc1` [5a, (2Z,5E)-2-hydroxy-6-(1-(4-methoxybenzyl)-1H-indol-3-yl)-4-oxohexa-2,5-dienoic acid], for which the IC50 on SARS-CoV-2 nsp13 [1] (setting [3]) was found to be 19.9 ± 0.73 µM; at SARS-CoV-2 nsp13 [2] (setting [4]), 10.5 ± 0.81 µM.
For `Cc1ccc(Cn2cc(/C=C/C(=O)/C=C(\O)C(=O)O)c3ccccc32)cc1` [5b], the IC50 at SARS-CoV-2 nsp13 [1] (setting [3]) was 3.83 ± 0.45 µM; at SARS-CoV-2 nsp13 [2] (setting [4]), 13.6 ± 1.96 µM.
On to `O=C(/C=C(\O)C(=O)O)/C=C/c1cn(Cc2ccc(F)cc2)c2ccccc12` [5d, (2Z,5E)-6-(1-(4-fluorobenzyl)-1H-indol-3-yl)-2-hydroxy-4-oxohexa-2,5-dienoic acid], for which the half-maximal inhibitory concentration (IC50) on SARS-CoV-2 nsp13 [1] (setting [3]) worked out at 9.91 ± 0.5 µM; at SARS-CoV-2 nsp13 [2] (setting [4]) it was 7.63 ± 2.48 µM.
`O=C(/C=C(\O)C(=O)O)/C=C/c1cn(S(=O)(=O)c2ccccc2)c2ccccc12` [5f]: the IC50 at SARS-CoV-2 nsp13 [1] (setting [3]) is 5.36 ± 0.74 µM; on SARS-CoV-2 nsp13 [2] (setting [4]), 7.54 ± 0.76 µM.
As to `O=C(/C=C(\O)C(=O)O)/C=C/c1cn(Cc2ccc(O)cc2)c2ccccc12` [5h, (2Z,5E)-2-hydroxy-6-(1-(4-hydroxybenzyl)-1H-indol-3-yl)-4-oxohexa-2,5-dienoic acid], the results for the concentration for half-maximal inhibition (IC50) on SARS-CoV-2 nsp13 [1] (setting [3]) and on SARS-CoV-2 nsp13 [2] (setting [4]) were 9.1 ± 3.4 µM and 2.77 ± 0.42 µM, respectively.
On to `CCOC(=O)/C(O)=C/C(=O)/C=C/c1cn(Cc2ccc(OC)cc2)c2ccccc12` [6a, Ethyl (2Z,5E)-2-hydroxy-6-(1-(4-methoxybenzyl)-1H-indol-3-yl)-4-oxohexa-2,5-dienoate], for which the IC50 at SARS-CoV-2 nsp13 [1] (setting [3]) is 2.21 ± 0.26 µM; on SARS-CoV-2 nsp13 [2] (setting [4]), 6.65 ± 1.2 µM.
For `CCOC(=O)/C(O)=C/C(=O)/C=C/c1cn(Cc2ccc(C)cc2)c2ccccc12` [6b], the IC50 at SARS-CoV-2 nsp13 [1] (setting [3]) is 2.88 ± 0.59 µM; on SARS-CoV-2 nsp13 [2] (setting [4]), 7.34 ± 1.81 µM.
The matching figures for `CCOC(=O)/C(O)=C/C(=O)/C=C/c1cn(Cc2ccc(C(C)C)cc2)c2ccccc12` [6c]: 5.8 ± 0.12 µM and 5.81 ± 0.47 µM.
For `CCOC(=O)/C(O)=C/C(=O)/C=C/c1cn(Cc2ccc(F)cc2)c2ccccc12` [6d, Ethyl (2Z,5E)-6-(1-(4-fluorobenzyl)-1H-indol-3-yl)-2-hydroxy-4-oxohexa-2,5-dienoate] the same measures were 3.22 ± 0.14 µM and 3.64 ± 0.11 µM.
Consider `CCOC(=O)/C(O)=C/C(=O)/C=C/c1cn(S(=O)(=O)c2ccccc2)c2ccccc12` [6f], for which the half-maximal inhibitory concentration (IC50) turned out to be 7.07 ± 0.74 µM on SARS-CoV-2 nsp13 [1] (setting [3]) and 11 ± 0.37 µM at SARS-CoV-2 nsp13 [2] (setting [4]).
`CCOC(=O)/C(O)=C/C(=O)/C=C/c1cn(Cc2ccc(C#N)cc2)c2ccccc12` [6g, Ethyl (2Z,5E)-6-(1-(4-cyanobenzyl)-1H-indol-3-yl)-2-hydroxy-4-oxohexa-2,5-dienoate]: the IC50 came out at 6.24 ± 0.24 µM on SARS-CoV-2 nsp13 [1] (setting [3]) and 6.76 ± 1.18 µM at SARS-CoV-2 nsp13 [2] (setting [4]).
As to `CCOC(=O)/C(O)=C/C(=O)/C=C/c1cn(Cc2ccc(O)cc2)c2ccccc12` [6h, Ethyl (2Z,5E)-2-hydroxy-6-(1-(4-hydroxybenzyl)-1H-indol-3-yl)-4-oxohexa-2,5-dienoate], the 50% inhibitory concentration (IC50) amounted to 3.7 ± 0.74 µM at SARS-CoV-2 nsp13 [1] (setting [3]) and 15.4 ± 1.47 µM at SARS-CoV-2 nsp13 [2] (setting [4]).
As to `CCOC(=O)/C(O)=C/C(=O)/C=C/c1cn(Cc2ccc(F)cc2)c2ccc(Cl)cc12` [6i, Ethyl (2Z,5E)-6-(5-chloro-1-(4-fluorobenzyl)-1H-indol-3-yl)-2-hydroxy-4-oxohexa-2,5-dienoate], the 50% inhibitory concentration (IC50) came to 3.92 ± 0.96 µM at SARS-CoV-2 nsp13 [1] (setting [3]) and 5.22 ± 0.44 µM at SARS-CoV-2 nsp13 [2] (setting [4]).
As to `COc1ccc(Cn2cc(C(=O)/C=C(\O)C(=O)O)c3ccccc32)cc1` [7a], the half-inhibitory concentration (IC50) at SARS-CoV-2 nsp13 [1] (setting [5]) and against SARS-CoV-2 nsp13 [2] (setting [6]) was more than 30 µM in each case. Further, the remaining activity at 30 µM at SARS-CoV-2 nsp13 [1] was 73.4%; on SARS-CoV-2 nsp13 [2], 50.4%.
For the compound `Cc1ccc(Cn2cc(C(=O)/C=C(\O)C(=O)O)c3ccccc32)cc1` [7b], the IC50 on SARS-CoV-2 nsp13 [1] (setting [5]) is 8.33 ± 0.45 µM; at SARS-CoV-2 nsp13 [2] (setting [6]), 20.6 ± 3.22 µM.
With `CC(C)c1ccc(Cn2cc(C(=O)/C=C(\O)C(=O)O)c3ccccc32)cc1` [7c], the 50% inhibitory concentration (IC50) came to 13 ± 1.08 µM on SARS-CoV-2 nsp13 [1] (setting [5]) and 14.1 ± 0.48 µM against SARS-CoV-2 nsp13 [2] (setting [6]).
For the compound `O=C(O)/C(O)=C/C(=O)c1cn(Cc2ccc(F)cc2)c2ccccc12` [7d, (Z)-4-(1-(4-fluorobenzyl)-1H-indol-3-yl)-2-hydroxy-4-oxobut-2-enoic acid], the half-inhibitory concentration (IC50) at SARS-CoV-2 nsp13 [1] (setting [5]) and on SARS-CoV-2 nsp13 [2] (setting [6]) was more than 30 µM in each case. Besides, the remaining activity at 30 µM at SARS-CoV-2 nsp13 [1] was found to be 70%; on SARS-CoV-2 nsp13 [2], 50%.
